Experimental data published in ChEMBL document CHEMBL1128617, “4-Deoxy-4-aminoavermectins with potent broad spectrum antiparasitic activities” (1995).

Key:
Type in all cases: functional
[1] = system: Trichostrongylus axei; assay: Antiparasitic activity against Trichostrongylus axei at dose of 0.10 mg/kg in sheep anthelmintic test; settings: dose 0.1 mg/kg
[2] = system: Haemonchus contortus; assay: Antiparasitic activity against Haemonchus contortus at dose of 0.10 mg/kg in sheep anthelmintic test; settings: dose 0.1 mg/kg
[3] = system: Trichostrongylus colubriformis; assay: Antiparasitic activity against Trichostrongylus colubriformis at dose of 0.10 mg/kg in sheep anthelmintic test; settings: dose 0.1 mg/kg
[4] = system: Teladorsagia circumcincta; assay: Antiparasitic activity against Ostertagia circumcincta at dose of 0.10 mg/kg in sheep anthelmintic test; settings: dose 0.1 mg/kg
[5] = system: Artemia; assay: In vitro antiparasitic activity in brine shrimp assay
[6] = system: Oesophagostomum columbianum; assay: Antiparasitic activity against Oesophagostomum columbianum at dose of 0.10 mg/kg in sheep anthelmintic test; settings: dose 0.1 mg/kg
[7] = system: Cooperia; assay: Antiparasitic activity against Cooperia […] at dose of 0.10 mg/kg in sheep anthelmintic test; settings: dose 0.1 mg/kg
[8] = system: Cooperia oncophora; assay: Antiparasitic activity against Cooperia oncophora at dose of 0.10 mg/kg in sheep anthelmintic test; settings: dose 0.1 mg/kg
[9] = system: Cooperia oncophora; assay: Antiparasitic activity against Cooperia oncophora at dose of 0.05 mg/kg in sheep anthelmintic test
[10] = system: Cooperia; assay: Antiparasitic activity against Cooperia […] at dose of 0.05 mg/kg in sheep anthelmintic test
[11] = system: Haemonchus contortus; assay: Antiparasitic activity against Haemonchus contortus at dose of 0.05 mg/kg in sheep anthelmintic test
[12] = system: Trichostrongylus colubriformis; assay: Antiparasitic activity against Trichostrongylus colubriformis at dose of 0.05 mg/kg in sheep anthelmintic test
[13] = system: Teladorsagia circumcincta; assay: Antiparasitic activity against Ostertagia circumcincta at dose of 0.05 mg/kg in sheep anthelmintic test
[14] = system: Trichostrongylus axei; assay: Antiparasitic activity against Trichostrongylus axei at dose of 0.05 mg/kg in sheep anthelmintic test
[15] = system: Oesophagostomum columbianum; assay: Antiparasitic activity against Oesophagostomum columbianum at dose of 0.05 mg/kg in sheep anthelmintic test
[16] = system: Ovis aries; assay: Antiparasitic activity against Oesophagostomum columbianum at dose of 0.04 mg/kg in sheep anthelmintic test
[17] = system: Ovis aries; assay: Antiparasitic activity against Haemonchus contortus at dose of 0.04 mg/kg in sheep anthelmintic test
[18] = system: Ovis aries; assay: Antiparasitic activity against Cooperia […] at dose of 0.04 mg/kg in sheep anthelmintic test
[19] = system: Ovis aries; assay: Antiparasitic activity against Trichostrongylus colubriformis at dose of 0.04 mg/kg in sheep anthelmintic test
[20] = system: Ovis aries; assay: Antiparasitic activity against Ostertagia circumcincta at dose of 0.04 mg/kg in sheep anthelmintic test
[21] = system: Ovis aries; assay: Antiparasitic activity against Trichostrongylus axei at dose of 0.04 mg/kg in sheep anthelmintic test
[22] = system: Ovis aries; assay: Antiparasitic activity against Trichostrongylus axei at dose of 0.08 mg/kg in sheep anthelmintic test
[23] = system: Ovis aries; assay: Antiparasitic activity against Oesophagostomum columbianum at dose of 0.08 mg/kg in sheep anthelmintic test
[24] = system: Ovis aries; assay: Antiparasitic activity against Ostertagia circumcincta at dose of 0.08 mg/kg in sheep anthelmintic test
[25] = system: Ovis aries; assay: Antiparasitic activity against Trichostrongylus colubriformis at dose of 0.08 mg/kg in sheep anthelmintic test
[26] = system: Ovis aries; assay: Antiparasitic activity against Haemonchus contortus at dose of 0.08 mg/kg in sheep anthelmintic test
[27] = system: Ovis aries; assay: Antiparasitic activity against Cooperia […] at dose of 0.08 mg/kg in sheep anthelmintic test

Row | SMILES | Reduction [1] [%] | Reduction [2] [%] | Reduction [3] [%] | Reduction [4] [%] | IC100 [5] [ng/mL] | Reduction [6] [%] | Reduction [7] [%] | Reduction [8] [%] | also measured
1 | CCC(C)[C@H]1O[C@]2(CC(O)[C@@H]1C)C[C@@H]1C[C@@H](C/C=C(\C)[C@@H](O[C@H]3C[C@H](OC)[C@@H](O[C@H]4C[C@H](OC)[C@H](NC(C)=O)[C@H](C)O4)[C@H](C)O3)[C@@H](C)/C=C/C=C3\CO[C@@H]4[C@H](O)C(C)=C[C@@H](C(=O)O1)[C@]34O)O2 (some centres undefined) | >95 | <50 | >95 | >95 | 870 | >95 | 76 | >95 | 
2 | CCC(C)[C@H]1O[C@]2(C=C[C@@H]1C)C[C@@H]1C[C@@H](C/C=C(\C)[C@@H](O[C@H]3C[C@H](OC)[C@@H](O[C@H]4C[C@H](OC)[C@H](NC(=O)OC)[C@H](C)O4)[C@H](C)O3)[C@@H](C)/C=C/C=C3\CO[C@@H]4[C@H](O)C(C)=C[C@@H](C(=O)O1)[C@]34O)O2 (some centres undefined) | >95 | >95 | >95 | >95 | 430 | >95 | >95 | >95 | 
3 | CCC(C)[C@H]1O[C@]2(C=C[C@@H]1C)C[C@@H]1C[C@@H](C/C=C(\C)[C@@H](O[C@H]3C[C@H](OC)[C@@H](O[C@H]4C[C@H](OC)[C@H](NN(C)C)[C@H](C)O4)[C@H](C)O3)[C@@H](C)/C=C/C=C3\CO[C@@H]4[C@H](O)C(C)=C[C@@H](C(=O)O1)[C@]34O)O2 (some centres undefined) | >95 | >95 | >95 | >95 | 430 | >95 | >95 | >95 | 
4 | CCC(C)[C@H]1O[C@]2(C=C[C@@H]1C)C[C@@H]1C[C@@H](C/C=C(\C)[C@@H](O[C@H]3C[C@H](OC)[C@@H](O[C@H]4C[C@H](OC)[C@H](N(C)C(C)=O)[C@H](C)O4)[C@H](C)O3)[C@@H](C)/C=C/C=C3\CO[C@@H]4[C@H](O)C(C)=C[C@@H](C(=O)O1)[C@]34O)O2 (some centres undefined) |  |  |  |  | 650 |  |  |  | Reduction [9]: >95%; Reduction [10]: >95%; Reduction [11]: >95%; Reduction [12]: >95%; Reduction [13]: >95%; Reduction [14]: >95%; Reduction [15]: >95%
5 | CCC(C)[C@H]1O[C@]2(C=C[C@@H]1C)C[C@@H]1C[C@@H](C/C=C(\C)[C@@H](O[C@H]3C[C@H](OC)[C@@H](O[C@H]4C[C@H](OC)[C@H](N(C)C)[C@H](C)O4)[C@H](C)O3)[C@@H](C)/C=C/C=C3\CO[C@@H]4[C@H](O)C(C)=C[C@@H](C(=O)O1)[C@]34O)O2 (some centres undefined) |  |  |  |  | 1300 |  |  |  | Reduction [16]: >95%; Reduction [17]: >95%; Reduction [18]: 51%; Reduction [19]: 51%; Reduction [20]: >95%; Reduction [21]: <50%
6 | CCC(C)[C@H]1O[C@]2(C=C[C@@H]1C)C[C@@H]1C[C@@H](C/C=C(\C)[C@@H](O[C@H]3C[C@H](OC)[C@@H](O[C@H]4C[C@H](OC)/C(=N\NC(N)=O)[C@H](C)O4)[C@H](C)O3)[C@@H](C)/C=C/C=C3\CO[C@@H]4[C@H](O)C(C)=C[C@@H](C(=O)O1)[C@]34O)O2 (some centres undefined) |  |  |  |  | 650 |  |  |  | Reduction [22]: >95%; Reduction [23]: >95%; Reduction [24]: >95%; Reduction [25]: >95%; Reduction [26]: >95%; Reduction [27]: <50%
7 | CCC(C)[C@H]1O[C@]2(C=C[C@@H]1C)C[C@@H]1C[C@@H](C/C=C(\C)[C@@H](O[C@H]3C[C@H](OC)[C@@H](O[C@H]4C[C@H](OC)[C@H](/N=C/N(C)C)[C@H](C)O4)[C@H](C)O3)[C@@H](C)/C=C/C=C3\CO[C@@H]4[C@H](O)C(C)=C[C@@H](C(=O)O1)[C@]34O)O2 (some centres undefined) | 51 | >95 | <50 | >95 | 870 | >95 | 76 | <50 | 
